Experimental data from patent US20230123334A1, “AMINO LIPID COMPOUND, PREPARATION METHOD THEREFOR, AND APPLICATION THEREOF” (SHENZHEN SHENXIN BIOTECHNOLOGY CO., LTD., priority 2020, published 2023).

test system: HEK293 cells; assay: Preliminary screening as DNA vectors, GFP transfection of HEK293 cells; format: cell-based; details: amino lipid/DOPE liposome with 75 ng plasmid DNA (psin-EGFP-IRES-Puro); number of GFP-expressing cells divided by total nuclei (Hoechst)
Summary of the method: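 HEK293 cells in DMEM/10% FBS transfected with 75 ng EGFP plasmid per well complexed with amino lipid/DOPE liposomes in pH 5.6 sodium acetate. Hoechst nuclear stain added 20-24 h post-transfection, then cells cultured another 20-24 h. Confocal imaging gives GFP-positive cells as % of total nuclei.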

| Structure (SMILES) | Absolute DNA transfection efficiency in HEK293 cells [%] |
| --- | --- |
| CCCCCCCCCNc1nc(NCCCN2CCOCC2)nc(SCCCCCCCCC)n1 [S9N9 D8] | 14.8 |
| CCCCCCCCCNc1nc(NCCCN2CCN(C)CC2)nc(SCCCCCCCCC)n1 [S9N9 D9] | 50.7 |
| CCCCCCCCCNc1nc(NCC2CCN(C)CC2)nc(SCCCCCCCCC)n1 [S9N9 D10] | 34.5 |
| CCCCCCCCCCCNc1nc(NCCN(C)C)nc(SCCCCCCCCC)n1 [S9N11 D1] | 35.3 |
| CCCCCCCCCCCNc1nc(NCCN2CCOCC2)nc(SCCCCCCCCC)n1 [S9N11 D2] | 16.2 |
| CCCCCCCCCCCNc1nc(NCCN2CCCC2)nc(SCCCCCCCCC)n1 [S9N11 D3] | 43.4 |
| CCCCCCCCCCCNc1nc(NCCN2CCCCC2)nc(SCCCCCCCCC)n1 [S9N11 D4] | 8.3 |
| CCCCCCCCCCCNc1nc(NCCN2CCN(C)CC2)nc(SCCCCCCCCC)n1 [S9N11 D5] | 45.0 |
| CCCCCCCCCCCNc1nc(NCCCN(C)C)nc(SCCCCCCCCC)n1 [S9N11 D6] | 55.4 |
| CCCCCCCCCCCNc1nc(NCCN(CC)CC)nc(SCCCCCCCCC)n1 [S9N11 D7] | 15.7 |
| CCCCCCCCCCCNc1nc(NCCCN2CCOCC2)nc(SCCCCCCCCC)n1 [S9N11 D8] | 26.8 |
| CCCCCCCCCCCNc1nc(NCCCN2CCN(C)CC2)nc(SCCCCCCCCC)n1 [S9N11 D9] | 49.3 |
| CCCCCCCCCCCNc1nc(NCC2CCN(C)CC2)nc(SCCCCCCCCC)n1 [S9N11 D10] | 42.5 |
| CCCCCCCCCCCCNc1nc(NCCN(C)C)nc(SCCCCCCCCC)n1 [S9N12 D1] | 39.3 |
| CCCCCCCCCCCCNc1nc(NCCN2CCOCC2)nc(SCCCCCCCCC)n1 [S9N12 D2] | 13.0 |
| CCCCCCCCCCCCNc1nc(NCCN2CCCC2)nc(SCCCCCCCCC)n1 [S9N12 D3] | 47.3 |
| CCCCCCCCCCCCNc1nc(NCCN2CCCCC2)nc(SCCCCCCCCC)n1 [S9N12 D4] | 8.0 |
| CCCCCCCCCCCCNc1nc(NCCN2CCN(C)CC2)nc(SCCCCCCCCC)n1 [S9N12 D5] | 48.2 |
| CCCCCCCCCCCCNc1nc(NCCCN(C)C)nc(SCCCCCCCCC)n1 [S9N12 D6] | 70.5 |
| CCCCCCCCCCCCNc1nc(NCCN(CC)CC)nc(SCCCCCCCCC)n1 [S9N12 D7] | 12.4 |
| CCCCCCCCCCCCNc1nc(NCCCN2CCOCC2)nc(SCCCCCCCCC)n1 [S9N12 D8] | 13.6 |
| CCCCCCCCCCCCNc1nc(NCCCN2CCN(C)CC2)nc(SCCCCCCCCC)n1 [S9N12 D9] | 28.8 |
| CCCCCCCCCCCCNc1nc(NCC2CCN(C)CC2)nc(SCCCCCCCCC)n1 [S9N12 D10] | 25.8 |
| CCCCCCCCCCCCCNc1nc(NCCN(C)C)nc(SCCCCCCCCC)n1 [S9N13 D1] | 25.0 |
| CCCCCCCCCCCCCNc1nc(NCCN2CCOCC2)nc(SCCCCCCCCC)n1 [S9N13 D2] | 11.1 |
| CCCCCCCCCCCCCNc1nc(NCCN2CCCC2)nc(SCCCCCCCCC)n1 [S9N13 D3] | 31.6 |
| CCCCCCCCCCCCCNc1nc(NCCN2CCCCC2)nc(SCCCCCCCCC)n1 [S9N13 D4] | 6.7 |

| Structure (SMILES) | Absolute DNA transfection efficiency in HEK293 cells [%] |
| --- | --- |
| CCCCCCCCCCCCCNc1nc(NCCN2CCN(C)CC2)nc(SCCCCCCCCC)n1 [S9N13 D5] | 27.9 |
| CCCCCCCCCCCCCNc1nc(NCCCN(C)C)nc(SCCCCCCCCC)n1 [S9N13 D6] | 31.8 |
| CCCCCCCCCCCCCNc1nc(NCCN(CC)CC)nc(SCCCCCCCCC)n1 [S9N13 D7] | 6.5 |
| CCCCCCCCCCCCCNc1nc(NCCCN2CCOCC2)nc(SCCCCCCCCC)n1 [S9N13 D8] | 11.3 |
| CCCCCCCCCCCCCNc1nc(NCCCN2CCN(C)CC2)nc(SCCCCCCCCC)n1 [S9N13 D9] | 19.9 |
| CCCCCCCCCCCCCNc1nc(NCC2CCN(C)CC2)nc(SCCCCCCCCC)n1 [S9N13 D10] | 29.4 |
| CCCCCCCCCCCCCCCNc1nc(NCCN(C)C)nc(SCCCCCCCCC)n1 [S9N15 D1] | 29.8 |
| CCCCCCCCCCCCCCCNc1nc(NCCN2CCOCC2)nc(SCCCCCCCCC)n1 [S9N15 D2] | 7.3 |
| CCCCCCCCCCCCCCCNc1nc(NCCN2CCCC2)nc(SCCCCCCCCC)n1 [S9N15 D3] | 22.7 |
| CCCCCCCCCCCCCCCNc1nc(NCCN2CCCCC2)nc(SCCCCCCCCC)n1 [S9N15 D4] | 4.2 |
| CCCCCCCCCCCCCCCNc1nc(NCCN2CCN(C)CC2)nc(SCCCCCCCCC)n1 [S9N15 D5] | 16.1 |
| CCCCCCCCCCCCCCCNc1nc(NCCCN(C)C)nc(SCCCCCCCCC)n1 [S9N15 D6] | 13.4 |
| CCCCCCCCCCCCCCCNc1nc(NCCN(CC)CC)nc(SCCCCCCCCC)n1 [S9N15 D7] | 4.6 |
| CCCCCCCCCCCCCCCNc1nc(NCCCN2CCOCC2)nc(SCCCCCCCCC)n1 [S9N15 D8] | 5.3 |
| CCCCCCCCCCCCCCCNc1nc(NCCCN2CCN(C)CC2)nc(SCCCCCCCCC)n1 [S9N15 D9] | 10.9 |
| CCCCCCCCCCCCCCCNc1nc(NCC2CCN(C)CC2)nc(SCCCCCCCCC)n1 [S9N15 D10] | 19.0 |
| CCCCCCCCCCCCCCCCNc1nc(NCCN(C)C)nc(SCCCCCCCCC)n1 [S9N16 D1] | 19.2 |
| CCCCCCCCCCCCCCCCNc1nc(NCCN2CCOCC2)nc(SCCCCCCCCC)n1 [S9N16 D2] | 23.5 |
| CCCCCCCCCCCCCCCCNc1nc(NCCN2CCCC2)nc(SCCCCCCCCC)n1 [S9N16 D3] | 31.3 |
| CCCCCCCCCCCCCCCCNc1nc(NCCN2CCCCC2)nc(SCCCCCCCCC)n1 [S9N16 D4] | 8.1 |
| CCCCCCCCCCCCCCCCNc1nc(NCCN2CCN(C)CC2)nc(SCCCCCCCCC)n1 [S9N16 D5] | 21.7 |
| CCCCCCCCCCCCCCCCNc1nc(NCCCN(C)C)nc(SCCCCCCCCC)n1 [S9N16 D6] | 29.7 |
| CCCCCCCCCCCCCCCCNc1nc(NCCN(CC)CC)nc(SCCCCCCCCC)n1 [S9N16 D7] | 6.4 |
| CCCCCCCCCCCCCCCCNc1nc(NCCCN2CCOCC2)nc(SCCCCCCCCC)n1 [S9N16 D8] | 18.4 |
| CCCCCCCCCCCCCCCCNc1nc(NCCCN2CCN(C)CC2)nc(SCCCCCCCCC)n1 [S9N16 D9] | 20.3 |
| CCCCCCCCCCCCCCCCNc1nc(NCC2CCN(C)CC2)nc(SCCCCCCCCC)n1 [S9N16 D10] | 21.8 |
| CCCCCCCCCCCCCCCCCCNc1nc(NCCN(C)C)nc(SCCCCCCCCC)n1 [S9N18 D1] | 24.2 |
